From patent US10233188B2, “CDK2/4/6 inhibitors” (priority 2016, dated 2019)

Key:
CDK4/Cyclin D3 = CDK4/Cyclin D3 (Homo sapiens (Human), UniProt P11802); test: biochemical
CDK2/Cyclin E1 = CDK2/Cyclin E1 (Homo sapiens (Human), UniProt P24941); test: biochemical; settings: CDK2_Ki (nM), phosphorylated CDK2/Cyclin E1, 150 μM ATP, Morrison tight-binding fit
Method: The assay was initiated with the addition of ATP, following a fifteen minutes pre-incubation of enzyme and inhibitor at room temperature in the reaction mixture. The reaction was stopped after 45 minutes at room temperature by the addition of 50 μL of 80 mM EDTA, pH 7.5.

CDK6/Cyclin D1 = CDK6/Cyclin D1 (Homo sapiens (Human), UniProt Q00534); test: biochemical; settings: CDK6_Ki (nM), non-phosphorylated CDK6/Cyclin D1, 2 mM ATP, Morrison fit
HCC1806 tumor xenograft = test: HCC1806 mouse tumor xenograft model; format: in vivo, NU/NU female mice; settings: 30 mpk PO BID, 50 mpk PO BID and 75 mpk PO BID, 14 days
Method: Source: HCC1806 (# CRL 2335, ATCC, Manassas, Va.)
The HCC1806 tumor cell line was cultured in RPMI1640 media supplemented with 10% Fetal Bovine Serum (FBS). To establish a HCC1806 xenograft model, 5×10^6 cells per mouse were implanted subcutaneously into right hind flank NU/NU female mice. Cells were suspended in 50% Cultrex Basement Membrane Extract and 50% RPMI 1640 media serum free media prior to implantation.
Animals were randomized 7 days after cells implantation with each group consisting of 13 mice. Treatment began when tumors reached 100 mm^3 to 170 mm^3 in size on Day 7. Test compounds were prepared in 0.1% Tween, 0.5% Methyl cellulose in water and dosed PO at 30, 50, and 75 mg/kg as a suspension BID for 14 days. Mice receiving no drugs were given vehicle BID for 14 days. Tumor volumes were measured twice a week with an electric caliper, with tumor volumes calculated using Length×Width×Width/2 formula. Animal weights were recorded twice weekly.

Ovcar3 tumor xenograft = test: Ovcar3 mouse tumor xenograft model; format: in vivo, NSG mice; settings: 10 mpk PO QD, 50 mpk PO QD and 50 mpk PO BID, 14 days
Method: Ovcar3 tumor cell line, purchased from ATCC (ATCC HTB-161™) was cultured in RPMI1640 (1×) media (Gibco™ cat#11875-093) with 10% FBS (Gibco™ cat #26140-079). To establish a Ovcar3 xenograft model, 5×10^6 cells per mouse was implanted subcutaneously into right hind flank NSG mice (#5557-NOD.cg-Prkdc Jackson Lab). Cells were suspended in 50% matrigel (Cultrex Basement Membrane Extract (BME), Trevigen's Basement Membrane Matrix) and 50% RPMI1640 (1×) media (Gibco™ cat#11875-093) serum free media prior to implantation.
Animals were randomized 39 days after cells implantation with each group consisted of 4 mice. Treatment began when tumors reached 100 mm^3-190 mm^3 in size. Test compounds were prepared in 40% Captisol and dosed PO at 10 and 50 mg/kg QD or at 50 mg/kg BID as a suspension for 14 days. Animals were taken down at designated time. Mice receiving no drugs were given vehicle QD or BID for 14 days. Tumor volumes were measured once prior to randomization with an electric caliper, with tumor volumes were calculated using Length×Width×Width/2 formulation. Tumor volumes were measured twice a week with an electric caliper, with tumor volumes calculated using Length×Width×Width/2 formula. Animal weights were recorded twice weekly.

CDK4/Cyclin D3, sequence (P11802 whole entry): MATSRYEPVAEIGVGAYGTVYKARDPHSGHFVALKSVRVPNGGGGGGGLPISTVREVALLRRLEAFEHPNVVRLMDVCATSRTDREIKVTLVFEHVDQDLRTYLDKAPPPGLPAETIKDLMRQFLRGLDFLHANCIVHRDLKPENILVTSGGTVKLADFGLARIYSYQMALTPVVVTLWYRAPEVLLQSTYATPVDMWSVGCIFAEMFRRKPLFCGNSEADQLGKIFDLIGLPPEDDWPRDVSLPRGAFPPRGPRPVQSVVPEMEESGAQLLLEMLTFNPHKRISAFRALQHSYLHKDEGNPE
CDK4/Cyclin D3, sequence (P30281 whole entry partner): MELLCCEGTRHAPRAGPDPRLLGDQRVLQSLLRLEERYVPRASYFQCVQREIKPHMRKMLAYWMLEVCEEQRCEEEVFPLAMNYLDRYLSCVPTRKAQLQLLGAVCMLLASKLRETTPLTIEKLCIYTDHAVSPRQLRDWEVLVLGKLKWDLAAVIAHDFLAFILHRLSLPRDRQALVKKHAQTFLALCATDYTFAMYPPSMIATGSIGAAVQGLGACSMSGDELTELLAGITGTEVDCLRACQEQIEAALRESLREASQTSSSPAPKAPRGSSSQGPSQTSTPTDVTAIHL
CDK6/Cyclin D1, sequence (Q00534 whole entry): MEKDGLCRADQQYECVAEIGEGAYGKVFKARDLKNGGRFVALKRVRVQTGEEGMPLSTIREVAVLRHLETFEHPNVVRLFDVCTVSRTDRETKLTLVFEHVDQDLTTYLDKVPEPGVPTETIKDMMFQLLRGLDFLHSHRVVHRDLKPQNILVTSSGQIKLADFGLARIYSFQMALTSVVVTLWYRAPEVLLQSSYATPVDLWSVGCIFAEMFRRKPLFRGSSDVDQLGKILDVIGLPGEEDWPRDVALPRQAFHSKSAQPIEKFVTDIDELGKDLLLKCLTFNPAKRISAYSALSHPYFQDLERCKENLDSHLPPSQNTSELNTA
CDK6/Cyclin D1, sequence (P24385 whole entry partner): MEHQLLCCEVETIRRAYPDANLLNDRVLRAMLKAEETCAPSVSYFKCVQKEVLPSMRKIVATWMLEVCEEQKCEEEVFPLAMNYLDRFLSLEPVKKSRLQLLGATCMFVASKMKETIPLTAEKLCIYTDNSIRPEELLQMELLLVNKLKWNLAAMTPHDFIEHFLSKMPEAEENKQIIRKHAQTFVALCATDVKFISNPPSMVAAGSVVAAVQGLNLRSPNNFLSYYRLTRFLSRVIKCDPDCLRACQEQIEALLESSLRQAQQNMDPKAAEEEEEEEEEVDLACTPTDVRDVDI

For `C[C@@]1(O)CCC[C@H]1n1c(=O)c(F)cc2cnc(NC3CCN(S(C)(=O)=O)CC3)nc21` (single isomer, unassigned) [Example 6, (−)-6-fluoro-8-[(1R*,2R*)-2-hydroxy-2-methylcyclopentyl]-2-{[1-(methylsulfonyl)piperidin-4-yl]amino}pyrido[2,3-d]pyrimidin-7(8H)-one], the Ki (CDK4/Cyclin D3) was 3.94 nM, the Ki (CDK2/Cyclin E1) was 0.48 nM and the Ki (CDK6/Cyclin D1) was 2.38 nM.

Compound `C[C@@]1(O)CCC[C@H]1n1c(=O)c(CCO)cc2cnc(NC3CCN(S(C)(=O)=O)CC3)nc21` (single isomer, unassigned) [Example 122, (−)-6-(2-hydroxyethyl)-8-[(1R*,2R*)-2-hydroxy-2-methylcyclopentyl]-2-{[1-(methylsulfonyl)piperidin-4-yl]amino}pyrido[2,3-d]pyrimidin-7(8H)-one] has a Ki (CDK4/Cyclin D3) of 0.92 nM, a Ki (CDK2/Cyclin E1) of 0.11 nM and a Ki (CDK6/Cyclin D1) of 0.23 nM.

With `C[C@@]1(O)CCC[C@H]1n1c(=O)c(CC#N)cc2cnc(NC3CCN(S(C)(=O)=O)CC3)nc21` (single isomer, unassigned) [Example 120, (−)-(8-[(1R*,2R*)-2-hydroxy-2-methylcyclopentyl]-2-{[1-(methylsulfonyl)piperidin-4-yl]amino}-7-oxo-7,8-dihydropyrido[2,3-d]pyrimidin-6-yl)acetonitrile] the Ki (CDK4/Cyclin D3) was 0.34 nM, the Ki (CDK2/Cyclin E1) was 0.16 nM and the Ki (CDK6/Cyclin D1) was 0.18 nM.

`C[C@@]1(O)CCC[C@H]1n1c(=O)c(C(F)F)cc2cnc(NC3CCN(S(C)(=O)=O)CC3)nc21` [Example 10, 6-(difluoromethyl)-8-[(1R,2R)-2-hydroxy-2-methylcyclopentyl]-2-{[1-(methylsulfonyl)piperidin-4-yl]amino}pyrido[2,3-d]pyrimidin-7(8H)-one] was tested, and the “inhibition of tumor growth (mm^3)” value (HCC1806 tumor xenograft) was “tumor growth inhibition”.

In the case of `CS(=O)(=O)N1CCC(Nc2ncc3ccc(=O)n([C@@H]4CCC[C@@H](O)C4)c3n2)CC1` [Example 3, 8-[(1R,3R)-3-hydroxycyclohexyl]-2-{[1-(methylsulfonyl)piperidin-4-yl]amino}pyrido[2,3-d]pyrimidin-7(8H)-one], the Ki (CDK4/Cyclin D3) is reported as 3.43 nM, the Ki (CDK2/Cyclin E1) is reported as 0.26 nM and the Ki (CDK6/Cyclin D1) is reported as 1.17 nM.

`C[C@@]1(O)CCC[C@H]1n1c(=O)ccc2cnc(NC3CCN(S(C)(=O)=O)CC3)nc21` [Example 2, 8-[(1R,2R)-2-hydroxy-2-methylcyclopentyl]-2-{[1-(methylsulfonyl)piperidin-4-yl]amino}pyrido[2,3-d]pyrimidin-7(8H)-one] was tested, and the “inhibition of tumor growth (mm^3)” value (Ovcar3 tumor xenograft) was “dose dependent inhibition of tumor growth” and the “inhibition of tumor growth (mm^3)” value (HCC1806 tumor xenograft) was “dose dependent inhibition of tumor growth”.

`C[C@]1(O)CCC[C@@H]1n1c(=O)ccc2cnc(NC3CCN(S(=O)(=O)NC4CCOCC4)CC3)nc21` (single isomer, unassigned) [Example 69, (+)-4-({8-[(1R*,2R*)-2-hydroxy-2-methylcyclopentyl]-7-oxo-7,8-dihydropyrido[2,3-d]pyrimidin-2-yl}amino)-N-(tetrahydro-2H-pyran-4-yl)piperidine-1-sulfonamide] was tested, and the Ki (CDK2/Cyclin E1) was 4.48 nM and the Ki (CDK6/Cyclin D1) was 22.2 nM.

`CNS(=O)(=O)N1CCC(Nc2ncc3cc(C(F)F)c(=O)n([C@@H]4CCC[C@@]4(C)O)c3n2)CC1` (single isomer, unassigned) [Example 130, (−)-4-({6-(difluoromethyl)-8-[(1R*,2R*)-2-hydroxy-2-methylcyclopentyl]-7-oxo-7,8-dihydropyrido[2,3-d]pyrimidin-2-yl}amino)-N-methylpiperidine-1-sulfonamide] was tested, and the Ki (CDK2/Cyclin E1) was 0.17 nM and the Ki (CDK6/Cyclin D1) was 0.43 nM.

`Cc1cc2cnc(NC3CCN(S(C)(=O)=O)CC3)nc2n([C@@H]2CC[C@@H](O)C2)c1=O` (single isomer, unassigned) [Example 167, (−)-8-[(1R*,3R*)-3-hydroxycyclopentyl]-6-methyl-2-{[1-(methylsulfonyl)piperidin-4-yl]amino}pyrido[2,3-d]pyrimidin-7(8H)-one] was tested, and the Ki (CDK2/Cyclin E1) was 1.47 nM and the Ki (CDK6/Cyclin D1) was 1.63 nM.

Compound `CC[C@]1(O)CCC[C@@H]1n1c(=O)ccc2cnc(NC3CCN(S(C)(=O)=O)CC3)nc21` (single isomer, unassigned) [Example 194, (+)-(8-[(1R*,2R*)-2-ethyl-2-hydroxycyclopentyl]-2-{[1-(methylsulfonyl)piperidin-4-yl]amino}pyrido[2,3-d]pyrimidin-7(8H)-one] has a Ki (CDK2/Cyclin E1) of 4.01 nM and a Ki (CDK6/Cyclin D1) of 5.37 nM.

`CNS(=O)(=O)N1CCC(Nc2ncc3cc(F)c(=O)n([C@H]4CCC[C@]4(C)O)c3n2)CC1` (single isomer, unassigned) [Example 125, (+)-4-({6-fluoro-8-[(1R*,2R*)-2-hydroxy-2-methylcyclopentyl]-7-oxo-7,8-dihydropyrido[2,3-d]pyrimidin-2-yl}amino)-N-methylpiperidine-1-sulfonamide] showed a Ki (CDK2/Cyclin E1) of 6.21 nM and a Ki (CDK6/Cyclin D1) of 36.6 nM.

With `CC1(C)CC(Nc2ncc3cc(CCO)c(=O)n(C4CCCC4)c3n2)CCN1S(C)(=O)=O` (single isomer, unassigned; (+)) [Example 162, (+)-8-cyclopentyl-2-{[2,2-dimethyl-1-(methylsulfonyl)piperidin-4-yl]amino}-6-(2-hydroxyethyl)pyrido[2,3-d]pyrimidin-7(8H)-one] the Ki (CDK2/Cyclin E1) was 3.92 nM and the Ki (CDK6/Cyclin D1) was 12.3 nM.

For `CS(=O)(=O)N1CCC(Nc2ncc3cc(CC(F)F)c(=O)n([C@H]4CC[C@H](O)C4)c3n2)CC1` (single isomer, unassigned) [Example 171, (+)-6-(2,2-difluoroethyl)-8-[(1R*,3R*)-3-hydroxycyclopentyl]-2-{[1-(methylsulfonyl)piperidin-4-yl]amino}pyrido[2,3-d]pyrimidin-7(8H)-one], the Ki (CDK2/Cyclin E1) was 1.73 nM and the Ki (CDK6/Cyclin D1) was 1.55 nM.

In the case of `CNS(=O)(=O)N1CCC(Nc2ncc3cc(C)c(=O)n(C4CCCC4)c3n2)CC1` [Example 23, 4-[(8-cyclopentyl-6-methyl-7-oxo-7,8-dihydropyrido[2,3-d]pyrimidin-2-yl)amino]-N-methylpiperidine-1-sulfonamide], the Ki (CDK2/Cyclin E1) is reported as 0.78 nM and the Ki (CDK6/Cyclin D1) is reported as 0.62 nM.

`COC(C)(C)CNS(=O)(=O)N1CCC(Nc2ncc3ccc(=O)n([C@H]4CCC[C@]4(C)O)c3n2)CC1` (single isomer, unassigned) [Example 61, (+)-4-({8-[(1R*,2R*)-2-hydroxy-2-methylcyclopentyl]-7-oxo-7,8-dihydropyrido[2,3-d]pyrimidin-2-yl}amino)-N-(2-methoxy-2-methylpropyl)piperidine-1-sulfonamide] was tested, and the Ki (CDK2/Cyclin E1) was 4.55 nM and the Ki (CDK6/Cyclin D1) was 19.7 nM.

For `Cc1cc2cnc(NC3CCN(S(=O)(=O)CC(F)(F)F)CC3)nc2n([C@H]2CCC[C@]2(C)O)c1=O` (single isomer, unassigned) [Example 119, (+)-8-[(1R*,2R*)-2-hydroxy-2-methylcyclopentyl]-6-methyl-2-({1-[(2,2,2-trifluoroethyl)sulfonyl]piperidin-4-yl}amino)pyrido[2,3-d]pyrimidin-7(8H)-one], the Ki (CDK2/Cyclin E1) was 2.87 nM and the Ki (CDK6/Cyclin D1) was 4.15 nM.

For `C[C@H]1CCC[C@H]1n1c(=O)c(CO)cc2cnc(NC3CCN(S(C)(=O)=O)CC3)nc21` [Example 50, 6-(hydroxymethyl)-8-[(1R,2S)-2-methylcyclopentyl]-2-{[1-(methylsulfonyl)piperidin-4-yl]amino}pyrido[2,3-d]pyrimidin-7(8H)-one], the Ki (CDK2/Cyclin E1) was 0.27 nM and the Ki (CDK6/Cyclin D1) was 0.08 nM.

`CS(=O)(=O)N1CCC(Nc2ncc3cc(C(F)(F)F)c(=O)n(C4CCCC4)c3n2)CC1` [Example 148, 8-cyclopentyl-2-{[1-(methylsulfonyl)piperidin-4-yl]amino}-6-(trifluoromethyl)pyrido[2,3-d]pyrimidin-7(8H)-one] gave a Ki (CDK2/Cyclin E1) of 4.18 nM and a Ki (CDK6/Cyclin D1) of 0.26 nM.

In the case of `C[C@@]1(O)CCC[C@H]1n1c(=O)c(CO)cc2cnc(NC3CCN(S(C)(=O)=O)CC3)nc21` (single isomer, unassigned) [Example 185, (−)-6-(hydroxymethyl)-8-[(1R*,2R*)-2-hydroxy-2-methylcyclopentyl]-2-{[1-(methylsulfonyl)piperidin-4-yl]amino}pyrido[2,3-d]pyrimidin-7(8H)-one], the Ki (CDK2/Cyclin E1) is reported as 0.43 nM and the Ki (CDK6/Cyclin D1) is reported as 0.38 nM.
